Laboratory results as given in the NIST ThermoML archive (doi:10.1016/j.jct.2016.02.009).

Experiment: molar heat capacity at constant pressure
Details: 101.33 kPa, Small (less than 1 g) adiabatic calorimetry

CCCCCCCCCCn1cc[n+](C)c1.O=S(=O)([N-]S(=O)(=O)C(F)(F)F)C(F)(F)F
molar heat capacity at constant pressure [J/K/mol]
Details	Crystal 2	Metastable crystal
58.65 K	–	191.3
60 K	190.4	194.8
60.11 K	190.6	–
60.78 K	–	196.8
62.24 K	196.1	–
62.91 K	–	202.2
64.38 K	201.3	–
65.05 K	–	207.5
66.52 K	206.5	–
67.19 K	–	212.7
68.65 K	211.6	–
69.32 K	–	217.8
70 K	214.9	219.4
70.79 K	216.6	–
71.56 K	–	223.1
73.03 K	221.9	–
73.9 K	–	228.4
75.37 K	227.2	–
76.24 K	–	233.8
77.73 K	232.5	–
78.59 K	–	239
80 K	237.4	242.1
80.09 K	237.6	–
80.53 K	238.8	–
80.94 K	–	244.2
81.02 K	–	244.3
82.24 K	242.3	–
82.44 K	242.6	–
82.84 K	–	248.2
83.3 K	–	249.2
83.96 K	245.9	–
84.55 K	–	251.8
85.68 K	249.4	–
86.26 K	–	255.5
87.42 K	253.1	–
87.99 K	–	259.2
89.16 K	256.6	–
89.72 K	–	262.8
90 K	258.5	263.4
90.91 K	260.3	–
91.45 K	–	266.4
92.66 K	263.9	–
93.2 K	–	270
94.42 K	267.5	–
94.95 K	–	273.7
96.19 K	271.1	–
96.7 K	–	277.2
97.97 K	274.7	–
98.47 K	–	280.8
99.75 K	278.1	–
100 K	278.7	283.9
100.23 K	–	284.3
101.59 K	281.8	–
102.07 K	–	288.2
103.5 K	285.5	–
103.96 K	–	292
105.42 K	289.1	–
105.87 K	–	295.9
107.35 K	292.7	–
107.77 K	–	299.7
109.27 K	296.4	–
109.69 K	–	303.6
110 K	297.7	304.1
111.21 K	299.9	–
111.6 K	–	307.4
113.14 K	303.5	–
113.52 K	–	311.1
115.09 K	307	–
115.45 K	–	314.9
117.03 K	310.5	–
117.37 K	–	318.6
118.98 K	314	–
119.3 K	–	322.3
120 K	315.8	323.7
120.92 K	317.4	–
121.23 K	–	326.1
122.88 K	320.8	–
123.16 K	–	329.9
124.83 K	324.3	–
125.09 K	–	333.6
126.79 K	327.7	–
127.03 K	–	337.4
128.75 K	331.1	–
128.97 K	–	341.2
130 K	333.3	343.2
130.71 K	334.5	–
130.9 K	–	345.1
132.67 K	337.9	–
132.84 K	–	348.9
134.64 K	341.3	–
134.78 K	–	352.7
136.6 K	344.8	–
136.72 K	–	356.6
138.57 K	348	–
138.66 K	–	360.6
140 K	350.5	363.3
140.54 K	351.4	–
140.6 K	–	364.4
142.51 K	354.8	–
